Measured values reported in US20070276022A1, “Optically Active Carboxamides” (priority 2003, published 2007).

Assays:
Assay type in all cases: in vivo
Podosphaera leucotricha = test: Podosphaera test (apple)/protective; conditions: protective, evaluation 10 days after inoculation
Procedure: (§1) For the production of an appropriate active compound preparation 1 part by weight of active compound is mixed with the given amount of solvent and emulsifier and the concentrate is diluted to the desired concentration with water.
(§2) For the investigation for the protective activity young plants are sprayed with the active compound preparation in the amount specified. After drying of the spray coating the plants are inoculated with an aqueous spore suspension of the apple mildew pathogen Podosphaera leucotricha. The plants are then placed in a greenhouse at ca. 23° C. and a relative humidity of ca. 70%.
(§3) Evaluation is carried out 10 days after the inoculation. A level of activity of 0% corresponds to the level of activity of the control, whereas a level of activity of 100% means that no infestation is observed.

Sphaerotheca fuliginea = test: Sphaerotheca test (cucumber)/protective; conditions: protective, evaluation 7 days after inoculation
Procedure: as §1
as §2, with “of” for “for”, “young cucumber” for “young”, “Sphaerotheca fuliginea.” for “the apple mildew pathogen Podosphaera leucotricha.”
Evaluation is carried out 7 days after the inoculation. A level of activity of 0% corresponds to the level of activity of the control, whereas a level of activity of 100% means that no infestation is observed.

Venturia inaequalis = test: Venturia test (apple)/protective; conditions: protective, evaluation 10 days after inoculation
Procedure: as §1
For the investigation of the protective activity young plants are sprayed with the active compound preparation in the amount specified. After drying of the spray coating the plants are inoculated with an aqueous conidial suspension of the apple scab pathogen Venturia inaequalis then left for 1 day in an incubator at ca. 20° C. and a relative humidity of 100%.
The plants are then placed in a greenhouse at ca. 21° C. and a relative humidity of ca. 90%.
as §3

Botrytis cinera = test: Botrytis test (bean)/protective; conditions: protective, evaluation 2 days after inoculation
Procedure: as §1
For the investigation the protective activity young plants are sprayed with the active compound preparation in the amount specified. After drying of the spray coating 2 small pieces of agar coated with Botrytis cinera are placed on each leaf. The inoculated plants are then placed in a darkened room at ca 20° C. and a relative humidity of 100%.
The size of the infestation spots on the leaves are evaluated 2 days after the inoculation. A level of activity of 0% corresponds to the level of activity of the control, whereas a level of activity of 100% means that no infestation is observed.

Alternaria solani = test: Alternaria test (tomato)/protective; conditions: protective, 50 g/ha, evaluation 3 days after inoculation
Procedure: as §1
as §2, with “of” for “for”, “Alternaria solani.” for “the apple mildew pathogen Podosphaera leucotricha.”, “an incubator” for “a greenhouse”, “20°” for “23°”, “100%.” for “ca. 70%.”
Evaluation is carried out 3 days after the inoculation. A level of activity of 0% corresponds the level of activity of the control, whereas a level of activity of 100% means that no infestation is observed.

## CC(C)C[C@H](C)c1ccccc1NC(=O)c1ccccc1C(F)(F)F [drawing 39]
Podosphaera leucotricha; 50 g/ha
  Level of activity in %: 100%

## CC(C)C[C@@H](C)c1ccccc1NC(=O)c1ccccc1C(F)(F)F [drawing 40]
Podosphaera leucotricha; 50 g/ha
  Level of activity in %: 20%

## CC(C)C[C@H](C)c1ccccc1NC(=O)c1cn(C)cc1C(F)(F)F [drawing 41]
Podosphaera leucotricha; 12.5 g/ha
  Level of activity in %: 98%

## CC(C)C[C@@H](C)c1ccccc1NC(=O)c1cn(C)cc1C(F)(F)F [drawing 42]
Podosphaera leucotricha; 12.5 g/ha
  Level of activity in %: 28%

## Cc1nn(C)c(F)c1C(=O)Nc1ccccc1[C@H](C)CC(C)C [drawing 44]
Sphaerotheca fuliginea; 25 g/ha
  Level of activity in %: 7%

## Cc1nn(C)c(F)c1C(=O)Nc1ccccc1[C@@H](C)CC(C)(C)C [drawing 45]
Sphaerotheca fuliginea; 25 g/ha
  Level of activity in %: 94%

## Cc1nn(C)c(F)c1C(=O)Nc1ccccc1[C@H](C)CC(C)(C)C [drawing 46]
Sphaerotheca fuliginea; 25 g/ha
  Level of activity in %: 0%

## Cc1nn(C)c(F)c1C(=O)Nc1ccccc1[C@@H](C)CC(C)C [drawing 47]
Sphaerotheca fuliginea; 25 g/ha
  Level of activity in %: 96%

## CC(C)C[C@H](C)c1ccccc1NC(=O)c1ccccc1I [drawing 51]
Sphaerotheca fuliginea; 25 g/ha
  Level of activity in %: 85%

## CC(C)C[C@@H](C)c1ccccc1NC(=O)c1ccccc1I [drawing 52]
Sphaerotheca fuliginea; 25 g/ha
  Level of activity in %: 15%

## CC(C)C[C@H](C)c1sccc1NC(=O)c1cn(C)nc1C(F)(F)F [drawing 53]
Sphaerotheca fuliginea; 3.125 g/ha
  Level of activity in %: 98%

## CC(C)C[C@@H](C)c1sccc1NC(=O)c1cn(C)nc1C(F)(F)F [drawing 54]
Sphaerotheca fuliginea; 3.125 g/ha
  Level of activity in %: 35%

## CC(C)C[C@H](C)c1ccccc1NC(=O)c1cn(C)cc1C(F)(F)F [drawing 55]
Sphaerotheca fuliginea; 50 g/ha
  Level of activity in %: 91%

## CC(C)C[C@@H](C)c1ccccc1NC(=O)c1cn(C)cc1C(F)(F)F [drawing 56]
Sphaerotheca fuliginea; 50 g/ha
  Level of activity in %: 23%

## Cc1nn(C)c(F)c1C(=O)Nc1ccccc1[C@@H](C)CC(C)C [drawing 57]
Venturia inaequalis; 25 g/ha
  Level of activity in %: 100%

## Cc1nn(C)c(F)c1C(=O)Nc1ccccc1[C@H](C)CC(C)C [drawing 58]
Venturia inaequalis; 25 g/ha
  Level of activity in %: 21%

## Cc1nn(C)c(F)c1C(=O)Nc1ccccc1[C@@H](C)CC(C)(C)C [drawing 59]
Venturia inaequalis; 25 g/ha
  Level of activity in %: 100%

## Cc1nn(C)c(F)c1C(=O)Nc1ccccc1[C@H](C)CC(C)(C)C [drawing 60]
Venturia inaequalis; 25 g/ha
  Level of activity in %: 0%

## CC(C)C[C@H](C)c1ccccc1NC(=O)c1ccccc1C(F)(F)F [drawing 61]
Venturia inaequalis; 25 g/ha
  Level of activity in %: 100%

## CC(C)C[C@@H](C)c1ccccc1NC(=O)c1ccccc1C(F)(F)F [drawing 62]
Venturia inaequalis; 25 g/ha
  Level of activity in %: 0%

## CC(C)C[C@H](C)c1ccccc1NC(=O)c1ccccc1I [drawing 63]
Venturia inaequalis; 25 g/ha
  Level of activity in %: 100%

## CC(C)C[C@@H](C)c1ccccc1NC(=O)c1ccccc1I [drawing 64]
Venturia inaequalis; 25 g/ha
  Level of activity in %: 16%

## CC(C)C[C@H](C)c1sccc1NC(=O)c1cn(C)nc1C(F)(F)F [drawing 65]
Venturia inaequalis; 3.125 g/ha
  Level of activity in %: 100%

## CC(C)C[C@@H](C)c1sccc1NC(=O)c1cn(C)nc1C(F)(F)F [drawing 66]
Venturia inaequalis; 3.125 g/ha
  Level of activity in %: 7%

## CC(C)C[C@H](C)c1ccccc1NC(=O)c1cn(C)cc1C(F)(F)F [drawing 67]
Venturia inaequalis; 50 g/ha
  Level of activity in %: 100%

## CC(C)C[C@@H](C)c1ccccc1NC(=O)c1cn(C)cc1C(F)(F)F [drawing 68]
Venturia inaequalis; 50 g/ha
  Level of activity in %: 20%

## Cc1nn(C)c(F)c1C(=O)Nc1ccccc1[C@@H](C)CC(C)C [drawing 69]
Botrytis cinera; 250 g/ha
  Level of activity in %: 100%

## Cc1nn(C)c(F)c1C(=O)Nc1ccccc1[C@H](C)CC(C)C [drawing 70]
Botrytis cinera; 250 g/ha
  Level of activity in %: 29%

## Cc1nn(C)c(F)c1C(=O)Nc1ccccc1[C@@H](C)CC(C)(C)C [drawing 71]
Botrytis cinera; 250 g/ha
  Level of activity in %: 100%

## Cc1nn(C)c(F)c1C(=O)Nc1ccccc1[C@H](C)CC(C)(C)C [drawing 72]
Botrytis cinera; 250 g/ha
  Level of activity in %: 14%

## CC(C)C[C@H](C)c1ccccc1NC(=O)c1ccccc1C(F)(F)F [drawing 73]
Botrytis cinera; 250 g/ha
  Level of activity in %: 90%

## CC(C)C[C@@H](C)c1ccccc1NC(=O)c1ccccc1C(F)(F)F [drawing 74]
Botrytis cinera; 250 g/ha
  Level of activity in %: 18%

## CC(C)C[C@H](C)c1ccccc1NC(=O)c1ccccc1I [drawing 75]
Botrytis cinera; 250 g/ha
  Level of activity in %: 86%

## CC(C)C[C@@H](C)c1ccccc1NC(=O)c1ccccc1I [drawing 76]
Botrytis cinera; 250 g/ha
  Level of activity in %: 0%

## CC(C)C[C@H](C)c1ccccc1NC(=O)c1cn(C)cc1C(F)(F)F [drawing 77]
Botrytis cinera; 62.5 g/ha
  Level of activity in %: 100%

## CC(C)C[C@@H](C)c1ccccc1NC(=O)c1cn(C)cc1C(F)(F)F [drawing 78]
Botrytis cinera; 62.5 g/ha
  Level of activity in %: 50%

## CC(C)C[C@H](C)c1ccccc1NC(=O)c1cn(C)cc1C(F)(F)F [drawing 79]
Alternaria solani
  Level of activity in %: 83%

## CC(C)C[C@@H](C)c1ccccc1NC(=O)c1cn(C)cc1C(F)(F)F [drawing 80]
Alternaria solani
  Level of activity in %: 30%
